Data as given in ChEMBL document CHEMBL3885881, “DrugMatrix”.

Species: Rattus norvegicus
Assay: DrugMatrix - Regimen: Daily Repeat
Assay type: toxicity, organism-based, Sprague-Dawley
Parameters: regimen Daily Repeat, gender Male, age 6-8 weeks
Conditions: in vivo, po, 72 h, route oral GAVAGE, time 3 day, vehicle .5 % CMC; for ALANINE AMINOTRANSFERASE / ALBUMIN / ALKALINE PHOSPHATASE / ASPARTATE AMINOTRANSFERASE / BLOOD UREA NITROGEN / CARBON DIOXIDE / CHLORIDE / CHOLESTEROL / CREATINE PHOSPHOKINASE / CREATININE / GLUCOSE / LACTATE DEHYDROGENASE / LIPASE / PHOSPHORUS / POTASSIUM / SODIUM / TOTAL BILIRUBIN / TOTAL PROTEIN / URIC ACID: tissue Plasma
[1] = 15 mg/kg, tissue Blood, dose level High

C=C1CC[C@H](O)C/C1=C/C=C1\CCC[C@]2(C)[C@@H]([C@H](C)/C=C/[C@H](C)C(C)C)CC[C@@H]12 [ERGOCALCIFEROL]
ALANINE AMINOTRANSFERASE (1 mg/kg, dose level Low): 47 u/L | ALBUMIN (1 mg/kg, dose level Low): 4.37 G/DL | ALKALINE PHOSPHATASE (1 mg/kg, dose level Low): 374.33 u/L | ASPARTATE AMINOTRANSFERASE (1 mg/kg, dose level Low): 77.33 u/L | BLOOD UREA NITROGEN (1 mg/kg, dose level Low): 13.33 mg/dL | CARBON DIOXIDE (1 mg/kg, dose level Low): 31 mmol/L | CHLORIDE (1 mg/kg, dose level Low): 97.33 MEQ/L | CHOLESTEROL (1 mg/kg, dose level Low): 71.67 mg/dL | CREATINE PHOSPHOKINASE (1 mg/kg, dose level Low): 205 u/L | CREATININE (1 mg/kg, dose level Low): 0.28 mg/dL | GLUCOSE (1 mg/kg, dose level Low): 142 mg/dL | LACTATE DEHYDROGENASE (1 mg/kg, dose level Low): 139.33 u/L | LIPASE (1 mg/kg, dose level Low): 8 u/L | PHOSPHORUS (1 mg/kg, dose level Low): 13.07 mg/dL | POTASSIUM (1 mg/kg, dose level Low): 6.56 MEQ/L | SODIUM (1 mg/kg, dose level Low): 144.27 MEQ/L | TOTAL BILIRUBIN (1 mg/kg, dose level Low): 0.17 mg/dL | TOTAL PROTEIN (1 mg/kg, dose level Low): 6.43 G/DL | URIC ACID (1 mg/kg, dose level Low): 1.17 mg/dL | ABSOLUTE BASOPHIL [1]: 0 CELLS/uL | ABSOLUTE EOSINOPHIL [1]: 0 CELLS/uL | ABSOLUTE LYMPHOCYTE [1]: 7628 CELLS/uL | ABSOLUTE MONOCYTE [1]: 40.67 CELLS/uL | ABSOLUTE SEGMENTED NEUTROPHIL [1]: 1198 CELLS/uL | BASOPHIL [1]: 0% | EOSINOPHIL [1]: 0% | ERYTHROCYTE COUNT [1]: 5.54 x10E6/uL | HEMATOCRIT [1]: 34.3% | HEMOGLOBIN [1]: 13.2 G/DL | LEUKOCYTE COUNT [1]: 8.87 x10E3/uL | LYMPHOCYTE [1]: 86.67% | MEAN CORPUSCULAR HEMOGLOBIN [1]: 23.83 pg | MEAN CORPUSCULAR HEMOGLOBIN CONCENTRATION [1]: 38.5 G/DL | MEAN CORPUSCULAR VOLUME [1]: 61.97 fL | MONOCYTE [1]: 0.33% | NEUTROPHIL [1]: 13% | NUCLEATED RED BLOOD CELLS [1]: 0.33 /100WBC | PLATELET COUNT [1]: 1196.67 x10E3/uL | ALANINE AMINOTRANSFERASE (15 mg/kg, dose level High): 55 u/L | ALBUMIN (15 mg/kg, dose level High): 4.43 G/DL | ALKALINE PHOSPHATASE (15 mg/kg, dose level High): 367.33 u/L | ASPARTATE AMINOTRANSFERASE (15 mg/kg, dose level High): 84 u/L | BLOOD UREA NITROGEN (15 mg/kg, dose level High): 14.33 mg/dL | CARBON DIOXIDE (15 mg/kg, dose level High): 31.67 mmol/L | CHLORIDE (15 mg/kg, dose level High): 93.33 MEQ/L | CHOLESTEROL (15 mg/kg, dose level High): 74.33 mg/dL | CREATINE PHOSPHOKINASE (15 mg/kg, dose level High): 211.67 u/L | CREATININE (15 mg/kg, dose level High): 0.24 mg/dL | GLUCOSE (15 mg/kg, dose level High): 139.33 mg/dL | LACTATE DEHYDROGENASE (15 mg/kg, dose level High): 153 u/L | LIPASE (15 mg/kg, dose level High): 8.33 u/L | PHOSPHORUS (15 mg/kg, dose level High): 13.23 mg/dL | POTASSIUM (15 mg/kg, dose level High): 6.15 MEQ/L | SODIUM (15 mg/kg, dose level High): 144.7 MEQ/L | TOTAL BILIRUBIN (15 mg/kg, dose level High): 0.1 mg/dL | TOTAL PROTEIN (15 mg/kg, dose level High): 6.63 G/DL | URIC ACID (15 mg/kg, dose level High): 1.43 mg/dL
